Consider 19 compounds from patent US11174245B2, “Benzimidazole compounds and derivatives as EGFR inhibitors” (Boehringer Ingelheim International GmbH, priority 2018, dated 2021).

EGFR (mutated) 695-1022, T790M, C797S, L858R, sequence (P00533 695-1022 T790M/C797S/L858R): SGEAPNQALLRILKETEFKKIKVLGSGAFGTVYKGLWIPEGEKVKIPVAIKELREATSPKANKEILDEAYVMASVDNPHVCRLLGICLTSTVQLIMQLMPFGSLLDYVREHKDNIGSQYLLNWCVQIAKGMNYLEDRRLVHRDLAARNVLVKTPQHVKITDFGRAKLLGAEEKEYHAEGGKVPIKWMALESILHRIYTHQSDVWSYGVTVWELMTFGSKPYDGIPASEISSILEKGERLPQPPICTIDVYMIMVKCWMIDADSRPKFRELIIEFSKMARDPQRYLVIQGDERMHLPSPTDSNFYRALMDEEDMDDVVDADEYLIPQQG
EGFR del19 T790M C797S protein in Ba/F3 cells, sequence (P00533 with tags, fused parts or gaps C797S/DEL746-750/T790M limits assumed): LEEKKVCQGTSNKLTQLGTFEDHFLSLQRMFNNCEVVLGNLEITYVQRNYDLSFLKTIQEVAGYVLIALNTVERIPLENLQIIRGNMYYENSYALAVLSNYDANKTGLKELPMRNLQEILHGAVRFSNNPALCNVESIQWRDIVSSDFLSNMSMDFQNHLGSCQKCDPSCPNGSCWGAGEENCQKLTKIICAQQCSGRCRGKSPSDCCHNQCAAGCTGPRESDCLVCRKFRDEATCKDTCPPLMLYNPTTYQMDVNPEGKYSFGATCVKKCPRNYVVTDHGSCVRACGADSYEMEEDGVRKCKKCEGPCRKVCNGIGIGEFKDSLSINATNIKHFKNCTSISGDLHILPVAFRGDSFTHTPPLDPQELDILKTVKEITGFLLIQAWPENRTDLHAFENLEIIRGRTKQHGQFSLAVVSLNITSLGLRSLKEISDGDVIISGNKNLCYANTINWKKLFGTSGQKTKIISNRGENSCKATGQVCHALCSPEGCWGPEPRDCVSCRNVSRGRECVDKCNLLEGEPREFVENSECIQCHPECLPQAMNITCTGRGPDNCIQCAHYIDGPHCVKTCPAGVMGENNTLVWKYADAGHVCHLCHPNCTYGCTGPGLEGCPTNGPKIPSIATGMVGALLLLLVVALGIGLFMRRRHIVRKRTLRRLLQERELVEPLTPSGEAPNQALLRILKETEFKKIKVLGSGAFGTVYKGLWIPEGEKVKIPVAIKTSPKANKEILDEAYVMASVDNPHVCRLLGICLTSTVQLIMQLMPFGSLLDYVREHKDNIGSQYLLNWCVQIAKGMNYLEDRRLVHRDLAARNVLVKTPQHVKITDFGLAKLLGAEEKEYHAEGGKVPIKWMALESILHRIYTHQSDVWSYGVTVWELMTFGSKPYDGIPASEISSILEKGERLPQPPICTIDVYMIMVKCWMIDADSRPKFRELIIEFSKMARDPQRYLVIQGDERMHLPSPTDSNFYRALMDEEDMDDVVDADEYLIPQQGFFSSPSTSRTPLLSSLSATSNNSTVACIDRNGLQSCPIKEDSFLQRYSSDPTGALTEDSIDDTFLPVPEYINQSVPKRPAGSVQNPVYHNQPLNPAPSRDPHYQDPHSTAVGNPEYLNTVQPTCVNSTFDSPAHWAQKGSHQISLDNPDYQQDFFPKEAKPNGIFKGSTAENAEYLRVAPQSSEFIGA
EGFR wt, sequence (P00533 25-1210): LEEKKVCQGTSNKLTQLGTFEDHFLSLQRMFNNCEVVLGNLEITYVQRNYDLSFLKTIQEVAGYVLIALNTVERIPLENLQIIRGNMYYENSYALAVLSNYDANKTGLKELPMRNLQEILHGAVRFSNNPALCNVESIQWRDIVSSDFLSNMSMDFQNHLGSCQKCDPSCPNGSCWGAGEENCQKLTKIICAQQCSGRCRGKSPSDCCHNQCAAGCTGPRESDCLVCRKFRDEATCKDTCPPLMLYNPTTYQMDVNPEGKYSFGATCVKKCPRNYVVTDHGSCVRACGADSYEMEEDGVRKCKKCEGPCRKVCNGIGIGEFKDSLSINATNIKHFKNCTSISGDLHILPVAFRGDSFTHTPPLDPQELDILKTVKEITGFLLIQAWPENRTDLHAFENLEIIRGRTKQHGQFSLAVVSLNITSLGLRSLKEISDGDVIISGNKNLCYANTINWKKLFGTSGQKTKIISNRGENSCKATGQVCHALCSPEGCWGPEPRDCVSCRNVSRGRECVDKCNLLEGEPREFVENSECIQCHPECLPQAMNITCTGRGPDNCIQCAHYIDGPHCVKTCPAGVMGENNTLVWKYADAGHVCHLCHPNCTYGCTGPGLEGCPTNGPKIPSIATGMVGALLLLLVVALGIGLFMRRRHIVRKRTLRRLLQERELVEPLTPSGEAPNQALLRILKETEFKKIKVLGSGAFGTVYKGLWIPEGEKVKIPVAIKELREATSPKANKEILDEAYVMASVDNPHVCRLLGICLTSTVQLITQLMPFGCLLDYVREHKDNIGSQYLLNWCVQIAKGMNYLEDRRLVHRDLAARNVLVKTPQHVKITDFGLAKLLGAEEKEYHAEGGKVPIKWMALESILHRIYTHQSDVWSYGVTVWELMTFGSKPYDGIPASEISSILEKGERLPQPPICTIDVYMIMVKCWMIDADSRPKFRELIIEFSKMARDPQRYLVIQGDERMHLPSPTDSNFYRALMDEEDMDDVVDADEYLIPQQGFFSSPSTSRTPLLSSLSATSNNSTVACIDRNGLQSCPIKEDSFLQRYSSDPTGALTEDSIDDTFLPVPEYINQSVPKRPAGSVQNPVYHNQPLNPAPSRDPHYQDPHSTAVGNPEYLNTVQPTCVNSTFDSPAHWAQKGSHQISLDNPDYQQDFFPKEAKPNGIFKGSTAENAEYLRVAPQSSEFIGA

One test has as its target EGFR del19 T790M C797S protein in Ba/F3 cells (Homo sapiens, UniProt P00533, C797S/DEL746-750/T790M). The experiment in a line: pEGFR assay (AlphaScreen Surefire, EGFR Tyr1068 phosphorylation).
Conditions: not given
The test is classed as cell-based. The procedure: Transduced cells were selected using puromycin. Following selection, IL-3 was withdrawn and IL-3 independent cells cultured. p-EGFR Tyr1068 was determined using the AlphaScreen Surefire pEGF Receptor (Tyr1068) Assay (PerkinElmer, TGRERS). […] Subsequently, 60.000 cells/well in 60 μL were added. Cells were incubated with compound for 4 h at 37° C. […] The mixture was incubated at room temperature with shaking (700 rpm) for 20 min. After centrifugation, 4 μL of the lysate were transferred to Proxiplates. […] Plates were shaken for 1 min (1400 rpm) and incubated for 2 h at room temperature in the dark.
The results of the assay are provided as IC50 values (see table 12).
The compound `COc1ccc(F)cc1-c1cc(C(=O)/N=c2\[nH]c3ccccc3n2[C@H]2CC[C@@H](O)CC2)ccn1` [I-157] had an IC50 of 5 nM.
On the same count and under the same terms, to `COc1ccccc1-c1cc(C(=O)/N=c2\[nH]c3cc(C4CCN(C(C)=O)C4)ccc3n2CC(C)(C)O)ccn1` (stereo not drawn) [I-158] belongs 6 nM.
`Cc1cccc(-c2cc(C(=O)/N=c3\[nH]c4ccccc4n3[C@H]3CC[C@@H](O)CC3)ccn2)c1` [I-161] yielded an IC50 of 6 nM.
Compound `COc1c(C)cccc1-c1cc(C(=O)/N=c2\[nH]c3ccccc3n2[C@H]2CC[C@@H](O)CC2)ccn1` [I-162] showed an IC50 of 6 nM.
On the same count and under the same terms, to `O=C(/N=c1\[nH]c2ccccc2n1[C@H]1CC[C@@H](O)CC1)c1ccnc(-c2ccccc2OC(F)F)c1` [I-163] belongs 7 nM; to `COc1ccncc1-c1cc(C(=O)/N=c2\[nH]c3ccccc3n2[C@H]2CC[C@@H](O)CC2)cc(C#N)n1` [I-167], 7 nM.
Compound `Cn1cc(-c2cc(C(=O)/N=c3\[nH]c4ccccc4n3[C@H]3COC[C@H](O)C3)ccn2)cn1` [I-168] yielded an IC50 of 10 nM.
The same measure, in the same setting: to `COc1cc(F)ccc1-c1cc(C(=O)/N=c2\[nH]c3ccccc3n2[C@H]2CC[C@@H](O)CC2)ccn1` [I-169] belongs 11 nM.
Same read-out and setting: next, `C#Cc1cc(C(=O)/N=c2\[nH]c3ccccc3n2[C@H]2CC[C@@H](O)CC2)cc(-c2cnn(C)c2)n1` [I-171]: 8 nM.
Same read-out and setting: to `COc1c(F)cccc1-c1cc(C(=O)/N=c2\[nH]c3ccccc3n2[C@H]2CC[C@@H](O)CC2)ccn1` [I-175] belongs 10 nM; to `O=C(/N=c1\[nH]c2ccccc2n1[C@H]1CC[C@@H](O)CC1)c1ccnc(-c2ccncc2)c1` [I-176], 11 nM.
Compound `O=C(/N=c1\[nH]c2ccccc2n1[C@H]1CC[C@@H](O)CC1)c1ccnc(-c2cccn3ncnc23)c1` [I-179] registered an IC50 of 12 nM.
On the same count and under the same terms, next, `O=C(/N=c1\[nH]c2ccccc2n1[C@H]1CC[C@@H](O)CC1)c1ccnc(-c2ccc(F)cc2F)c1` [I-180]: 12 nM; `COc1ccccc1-c1cc(C(=O)/N=c2\[nH]c3cc(CN4CCOCC4)ccc3n2[C@H]2CCC[C@H](O)C2)ccn1` [I-181]: 12 nM; `Cn1cc(-c2cc(C(=O)/N=c3\[nH]c4cc(CCCO)ccc4n3CC(C)(C)O)ccn2)cn1` [I-184]: 19 nM.
The same measure, in the same setting: to `O=C(/N=c1\[nH]c2ccccc2n1[C@H]1CC[C@@H](O)CC1)c1ccnc(-c2cccc(F)c2)c1` [I-185] belongs 23 nM; to `Cn1cc(-c2cc(C(=O)/N=c3\[nH]c4ccccc4n3[C@H]3COC[C@@H](O)C3)ccn2)cn1` [I-191], 44 nM.
Turning to `COc1ccncc1-c1cc(C(=O)/N=c2\[nH]c3cc(CN4CCOCC4)ccc3n2[C@H]2CC[C@@H](O)CC2)cc(C#N)n1` [I-196], inhibition was half-maximal at 5 nM (IC50).
On the same count and under the same terms, next, `Cc1cc(C(=O)/N=c2\[nH]c3cc(CN4CCOCC4)ccc3n2[C@H]2CC[C@@H](O)CC2)cc(-c2cnn(C)c2)n1` [I-197]: 7 nM.

Another test addresses EGFR (mutated) 695-1022, T790M, C797S, L858R (Homo sapiens (Human), UniProt P00533, C797S/L858R/T790M). The experiment in a line: Biochemical EGFR inhibition assay (TR-FRET, poly-GT substrate), EGFR T790M C797S L858R. The following applies: read-out: LR_TM_CS (5 μM ATP) IC50; 5 μM ATP. Here is the method:
(§1) Biochemical EGFR Inhibition Assays
(§2) Initially, the inhibitory effect of compounds according to the invention is measured in biochemical assays which measure the phosphorylation activity of EGFR enzyme forms on poly-GT substrate in the presence of different concentrations of ATP (5 μM and 100 μM final assay concentration).
(§3) The following enzyme forms of EGFR are representative examples that can be used in these assays at the given concentrations:
(§4) For the chosen highest assay concentration of 100 μM, 150 nL of compound solution is transferred from a 10 mM DMSO compound stock solution. A series of eleven fivefold dilutions per compound is transferred to the assay plate, compound dilutions are tested in duplicates. DMSO is added as backfill to a total volume of 150 nL. The assay runs on a fully automated robotic system.
(§5) These biochemical EGFR enzyme form compound dose-response assays quantify the kinase activity via phosphorylation of a tagged poly-GT substrate. The results of the assay are provided as IC50 values.
In the case of `COc1ccc(F)cc1-c1cc(C(=O)/N=c2\[nH]c3ccccc3n2[C@H]2CC[C@@H](O)CC2)ccn1` [I-157], the IC50 came out at 4.6 nM.
The same measure, in the same setting: next, `COc1ccccc1-c1cc(C(=O)/N=c2\[nH]c3cc(C4CCN(C(C)=O)C4)ccc3n2CC(C)(C)O)ccn1` (stereo not drawn) [I-158]: 1.5 nM.
Same read-out and setting: next, `Cc1cccc(-c2cc(C(=O)/N=c3\[nH]c4ccccc4n3[C@H]3CC[C@@H](O)CC3)ccn2)c1` [I-161]: 2.4 nM.
Still for that read-out and setting: to `COc1c(C)cccc1-c1cc(C(=O)/N=c2\[nH]c3ccccc3n2[C@H]2CC[C@@H](O)CC2)ccn1` [I-162] belongs 14.2 nM; to `O=C(/N=c1\[nH]c2ccccc2n1[C@H]1CC[C@@H](O)CC1)c1ccnc(-c2ccccc2OC(F)F)c1` [I-163], 10.4 nM; to `COc1ccncc1-c1cc(C(=O)/N=c2\[nH]c3ccccc3n2[C@H]2CC[C@@H](O)CC2)cc(C#N)n1` [I-167], 4.6 nM.
Turning to `Cn1cc(-c2cc(C(=O)/N=c3\[nH]c4ccccc4n3[C@H]3COC[C@H](O)C3)ccn2)cn1` [I-168], the half-maximal inhibitory concentration (IC50) was 5 nM.
Same read-out and setting: to `COc1cc(F)ccc1-c1cc(C(=O)/N=c2\[nH]c3ccccc3n2[C@H]2CC[C@@H](O)CC2)ccn1` [I-169] belongs 2.8 nM; to `C#Cc1cc(C(=O)/N=c2\[nH]c3ccccc3n2[C@H]2CC[C@@H](O)CC2)cc(-c2cnn(C)c2)n1` [I-171], 8.8 nM; to `COc1c(F)cccc1-c1cc(C(=O)/N=c2\[nH]c3ccccc3n2[C@H]2CC[C@@H](O)CC2)ccn1` [I-175], 13.6 nM.
Same read-out and setting: to `O=C(/N=c1\[nH]c2ccccc2n1[C@H]1CC[C@@H](O)CC1)c1ccnc(-c2ccncc2)c1` [I-176] belongs 4 nM.
Take `O=C(/N=c1\[nH]c2ccccc2n1[C@H]1CC[C@@H](O)CC1)c1ccnc(-c2cccn3ncnc23)c1` [I-179]: the IC50 was 33.8 nM.
Still for that read-out and setting: next, `O=C(/N=c1\[nH]c2ccccc2n1[C@H]1CC[C@@H](O)CC1)c1ccnc(-c2ccc(F)cc2F)c1` [I-180]: 4.8 nM; `COc1ccccc1-c1cc(C(=O)/N=c2\[nH]c3cc(CN4CCOCC4)ccc3n2[C@H]2CCC[C@H](O)C2)ccn1` [I-181]: 1.7 nM; `Cn1cc(-c2cc(C(=O)/N=c3\[nH]c4cc(CCCO)ccc4n3CC(C)(C)O)ccn2)cn1` [I-184]: 7.8 nM.
As for `O=C(/N=c1\[nH]c2ccccc2n1[C@H]1CC[C@@H](O)CC1)c1ccnc(-c2cccc(F)c2)c1` [I-185], the half-maximal inhibitory concentration (IC50) is 35.6 nM.
The same measure, in the same setting: next, `Cn1cc(-c2cc(C(=O)/N=c3\[nH]c4ccccc4n3[C@H]3COC[C@@H](O)C3)ccn2)cn1` [I-191]: 7.4 nM; `COc1ccncc1-c1cc(C(=O)/N=c2\[nH]c3cc(CN4CCOCC4)ccc3n2[C@H]2CC[C@@H](O)CC2)cc(C#N)n1` [I-196]: 3 nM; `Cc1cc(C(=O)/N=c2\[nH]c3cc(CN4CCOCC4)ccc3n2[C@H]2CC[C@@H](O)CC2)cc(-c2cnn(C)c2)n1` [I-197]: 2.7 nM.

The target of another test is EGFR wt (Homo sapiens (Human), UniProt P00533). Nature of the test: Biochemical EGFR inhibition assay (TR-FRET, poly-GT substrate), EGFR wt. The conditions noted are these: read-out: wt (5 μM ATP) IC50; 5 μM ATP. The procedure:
as §1, §2, §3, §4, §5
As to `COc1ccc(F)cc1-c1cc(C(=O)/N=c2\[nH]c3ccccc3n2[C@H]2CC[C@@H](O)CC2)ccn1` [I-157], the IC50 turned out to be 70.4 nM.
Still for that read-out and setting: to `COc1ccccc1-c1cc(C(=O)/N=c2\[nH]c3cc(C4CCN(C(C)=O)C4)ccc3n2CC(C)(C)O)ccn1` (stereo not drawn) [I-158] belongs 56.3 nM.
Same read-out and setting: to `Cc1cccc(-c2cc(C(=O)/N=c3\[nH]c4ccccc4n3[C@H]3CC[C@@H](O)CC3)ccn2)c1` [I-161] belongs 205 nM; to `COc1c(C)cccc1-c1cc(C(=O)/N=c2\[nH]c3ccccc3n2[C@H]2CC[C@@H](O)CC2)ccn1` [I-162], 1180 nM.
Still for that read-out and setting: to `O=C(/N=c1\[nH]c2ccccc2n1[C@H]1CC[C@@H](O)CC1)c1ccnc(-c2ccccc2OC(F)F)c1` [I-163] belongs 110 nM; to `COc1ccncc1-c1cc(C(=O)/N=c2\[nH]c3ccccc3n2[C@H]2CC[C@@H](O)CC2)cc(C#N)n1` [I-167], 995 nM.
On to `Cn1cc(-c2cc(C(=O)/N=c3\[nH]c4ccccc4n3[C@H]3COC[C@H](O)C3)ccn2)cn1` [I-168], for which the IC50 was 1270 nM.
The same measure, in the same setting: to `COc1cc(F)ccc1-c1cc(C(=O)/N=c2\[nH]c3ccccc3n2[C@H]2CC[C@@H](O)CC2)ccn1` [I-169] belongs 81.6 nM; to `C#Cc1cc(C(=O)/N=c2\[nH]c3ccccc3n2[C@H]2CC[C@@H](O)CC2)cc(-c2cnn(C)c2)n1` [I-171], 2970 nM.
Still for that read-out and setting: next, `COc1c(F)cccc1-c1cc(C(=O)/N=c2\[nH]c3ccccc3n2[C@H]2CC[C@@H](O)CC2)ccn1` [I-175]: 557 nM; `O=C(/N=c1\[nH]c2ccccc2n1[C@H]1CC[C@@H](O)CC1)c1ccnc(-c2ccncc2)c1` [I-176]: 293 nM.
In the case of `O=C(/N=c1\[nH]c2ccccc2n1[C@H]1CC[C@@H](O)CC1)c1ccnc(-c2cccn3ncnc23)c1` [I-179], the IC50 came to 3600 nM.
Still for that read-out and setting: next, `O=C(/N=c1\[nH]c2ccccc2n1[C@H]1CC[C@@H](O)CC1)c1ccnc(-c2ccc(F)cc2F)c1` [I-180]: 302 nM; `COc1ccccc1-c1cc(C(=O)/N=c2\[nH]c3cc(CN4CCOCC4)ccc3n2[C@H]2CCC[C@H](O)C2)ccn1` [I-181]: 31 nM; `Cn1cc(-c2cc(C(=O)/N=c3\[nH]c4cc(CCCO)ccc4n3CC(C)(C)O)ccn2)cn1` [I-184]: 1520 nM.
Regarding `O=C(/N=c1\[nH]c2ccccc2n1[C@H]1CC[C@@H](O)CC1)c1ccnc(-c2cccc(F)c2)c1` [I-185], the IC50 came out at 3240 nM.
On the same count and under the same terms, to `Cn1cc(-c2cc(C(=O)/N=c3\[nH]c4ccccc4n3[C@H]3COC[C@@H](O)C3)ccn2)cn1` [I-191] belongs 1660 nM.
In the case of `COc1ccncc1-c1cc(C(=O)/N=c2\[nH]c3cc(CN4CCOCC4)ccc3n2[C@H]2CC[C@@H](O)CC2)cc(C#N)n1` [I-196], the half-inhibitory concentration (IC50) was found to be 1400 nM.
On the same count and under the same terms, next, `Cc1cc(C(=O)/N=c2\[nH]c3cc(CN4CCOCC4)ccc3n2[C@H]2CC[C@@H](O)CC2)cc(-c2cnn(C)c2)n1` [I-197]: 5010 nM.
